Data published in patent publication US20260049104A1, “PEPTIDES WITH ANTIMICROBIAL PROPERTIES” (priority 2022, published 2026).
Converted amounts (≈) assume the structure as drawn.

Assays:
[1] = tested on: Gram-positive and Gram-negative bacteria; conditions: panel of E. coli, K. pneumoniae, E. cloacae, A. baumannii, E. faecalis and S. aureus; preliminary screening
Method: (§1) MIC screening of the peptides against a panel of ATCC and clinical strains was performed using broth microdilution method.^1 Briefly, peptides stock solutions in DMSO (0.1/G TFA) were diluted into Mueller Hinton Broth (MHB), followed by two-fold serial dilution in a 96-well plate. Bacteria culture in mid-log phase was diluted into MHB to yield […] colony-forming units (CFU)/mL. Equal volume of the starting inoculum was added to the peptide samples, then incubated for 18-20 h (37° C., 120 rpm). OD600 of the samples was then measured using Tecan Infinite M200 (TECAN, Männedorf, Switzerland). MIC is defined as the lowest peptide concentration to achieve more than 90% reduction in OD600 relative to the drug-free control. The experiments were repeated three times. Colistin-resistant clinical isolates are a kind gift from Dr. Jeanette Koh (National University Hospital, Singapore). Multidrug-resistant clinical isolates are a kind gift from Dr. Lakshminarayanan Rajamani (Singapore Eye Research Institute, Singapore).
(§2) Kanamycin and ampicillin were used as antibacterial control agents. […] Then, sequential 2-fold serial dilutions of the mix were diluted in 50 μL MH broth and 50 μL cell cultures were added to wells. […] All assays were carried out in triplicate.

[2] = tested on: Klebsiella pneumoniae; conditions: Klebsiella pneumoniae ATC 700603; Table 14, preliminary screening
Method: as §1, §2

Row | Compound | antibacterial activity [1] | MIC [2] [µg/mL]
1 | CC(C)C[C@H](NC(=O)[C@H]1NC(=O)[C@H](Cc2ccccc2)NC(=O)[C@@H](NC(=O)[C@@H](NC(=O)[C@H](CCC(=O)O)NC(=O)[C@H](C)NC(=O)[C@@H](NC(=O)[C@H](CO)NC(=O)[C@H](C)N)[C@@H](C)O)[C@@H](C)O)Cc2c[nH]c3cc(ccc23)C1CCCN)C(=O)N[C@@H](CC(=O)O)C(=O)N[C@H]1Cc2c[nH]c3cc(ccc23)C(CCCN)[C@@H](C(=O)N[C@@H](CO)C(=O)N[C@@H](Cc2ccccc2)C(=O)O)NC(=O)[C@H](CCCCN)NC1=O (stereo partly drawn) [Compound 21] | no activity | 
2 | CC[C@H](C)[C@H](NC(=O)CNC(=O)[C@H](CC(=O)O)NC(=O)[C@H](CC(=O)O)NC(=O)[C@H](CC(=O)O)NC(=O)[C@H](CO)NC(=O)[C@@H](N)CO)C(=O)N[C@H]1Cc2ccc(cc2)C(CCCN)[C@@H](C(=O)N[C@H](C(=O)N[C@H](C(=O)N[C@H]2Cc3c[nH]c4cc(ccc34)C(CCNC(=N)N)[C@@H](C(=O)N[C@@H](CCCNC(=N)N)C(=O)O)NC(=O)[C@H](CC(=O)O)NC2=O)[C@@H](C)O)[C@@H](C)O)NC(=O)[C@H](Cc2ccccc2)NC1=O (stereo partly drawn) [Compound 22] | no activity | 
3 | CC(C)[C@H](NC(=O)[C@H](Cc1c[nH]c2ccccc12)NC(=O)CNC(=O)[C@H](CCC(=O)O)NC(=O)CNC(=O)[C@@H](N)CCCNC(=N)N)C(=O)N[C@@H](CCCNC(=N)N)C(=O)N[C@@H](C)C(=O)N[C@@H](Cc1ccc(O)cc1)C(=O)N[C@H]1Cc2c[nH]c3cc(ccc23)C(CCCN)[C@@H](C(=O)N[C@@H](CCCNC(=N)N)C(=O)N[C@@H](Cc2ccccc2)C(=O)O)NC(=O)[C@H](C)NC1=O (stereo partly drawn) [Compound 25] | also active against these test bacteria, but weaker than 24 | 
4 | CC[C@H](C)[C@@H]1NC(=O)[C@@H](NC(=O)[C@H]2NC(=O)[C@H](CC(C)C)NC(=O)[C@@H](NC(=O)[C@H](CCCNC(=N)N)NC(=O)CNC(=O)[C@@H](N)CC(=O)O)Cc3c[nH]c4cc(ccc34)C2CC(N)=O)Cc2c[nH]c3cc(ccc23)C(CCCN)[C@@H](C(=O)N[C@@H](CC(N)=O)C(=O)N[C@@H](Cc2c[nH]cn2)C(=O)O)NC1=O (stereo partly drawn) [Compound 27] |  | 8 (≈ 5.52 µM)
5 | C[C@H](NC(=O)[C@H]1NC(=O)[C@H](C)NC(=O)[C@@H](N)Cc2ccc(cc2)C1C(N)=O)C(=O)N[C@H](C(=O)N[C@H]1Cc2c[nH]c3cc(ccc23)C(CCCN)[C@@H](C(=O)N[C@@H](CO)C(=O)N[C@@H](Cc2ccccc2)C(=O)O)NC(=O)[C@H](CO)NC1=O)[C@@H](C)O (stereo partly drawn) [Compound 30] | no activity | 
6 | C[C@H](NC(=O)[C@H](CC(N)=O)NC(=O)[C@H](C)NC(=O)[C@@H](N)Cc1ccccc1)C(=O)N[C@H](C(=O)N[C@H]1Cc2c[nH]c3cc(ccc23)C(CCCN)[C@@H](C(=O)N[C@@H](CO)C(=O)N[C@@H](Cc2ccccc2)C(=O)O)NC(=O)[C@H](CO)NC1=O)[C@@H](C)O (stereo partly drawn) [Compound 31] | no activity | 
